Laboratory results published in US20160206539A1, “COMPOSITION FOR SKIN AND SCALP HEALTH” (CONOPCO, INC., d/b/a UNILEVER, priority 2013, published 2016).

Columns and labels:
[1] = system: Neonatal Human Epidermal Melanocytes (NHEM) and HaCat; experiment: Reduction in melanin content assay (MCA) in melanocyte/keratinocyte co-culture; conditions: 72 hours treatment, relative to vehicle control
Xanthomonas oryzae = conditions: dilute solution sprayed on rice inoculated with Xanthomonas oryzae; cited from earlier work

| SMILES | Reduction in melanin content ([1]; 0.00014 wt % active (Example A)) [%] | Decrease of infection on the leaves (Xanthomonas oryzae) | Reduction in melanin content ([1]; 0.0005 wt % active (Example 1)) [%] | Reduction in melanin content ([1]; 0.00075 wt % active (Example 2)) [%] | Reduction in melanin content ([1]; 0.001 wt % active (Example 3)) [%] |
| --- | --- | --- | --- | --- | --- |
| CCc1ccc(O)cc1O [Ethyl resorcinol, reference compound] | 21.5 | – | – | – | – |
| C=C1C(=O)OC2C[C@]3(C)C(CC12)C(=C)C(O)C[C@H]3O (some centres unmarked) [Granilin] | – | about 75% | 30.4 | 47.6 | 52.3 |
